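Briefly, cells in 96-well plates were exposed to five compound concentrations for 48 h, and endpoints were estimated by linear interpolation. GI50 marks 50% less growth.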 The source made the active and inactive calls. Cut-off read from the data, not from the text of the source: active = GI50 up to about 1.1 µM and inactive = higher.
Tests used:
Test in all cases: NCI anticancer screen, dose series, 48 h
SK-MEL-28 = tested on: SK-MEL-28
HCC 2998 = tested on: HCC 2998
SR = tested on: SR
LOX IMVI = tested on: LOX IMVI
ACHN = tested on: ACHN
CAKI-1 = tested on: CAKI-1
SK-OV-3 = tested on: SK-OV-3
IGROV-1 = tested on: IGROV-1
OVCAR-8 = tested on: OVCAR-8
UO-31 = tested on: UO-31
A498 = tested on: A498
OVCAR-3 = tested on: OVCAR-3
HOP-92 = tested on: HOP-92
HOP-62 = tested on: HOP-62
HL-60 = tested on: HL-60
SF-295 = tested on: SF-295
KM12 = tested on: KM12
MDA-MB-231 = tested on: MDA-MB-231
NCI/ADR-RES = tested on: NCI/ADR-RES

C[n+]1cn(CC(=O)c2ccccc2)c(C(N)=O)c1N
GI50 (SK-MEL-28): > 100 µM (inactive) | GI50 (HCC 2998): > 100 µM (inactive) | GI50 (SR): > 100 µM (inactive) | GI50 (LOX IMVI): > 100 µM (inactive) | GI50 (ACHN): > 100 µM (inactive) | GI50 (CAKI-1): > 100 µM (inactive) | GI50 (SK-OV-3): > 100 µM (inactive) | GI50 (IGROV-1): > 100 µM (inactive) | GI50 (OVCAR-8): > 100 µM (inactive) | GI50 (UO-31): > 100 µM (inactive) | GI50 (A498): > 100 µM (inactive) | GI50 (OVCAR-3): > 100 µM (inactive) | GI50 (HOP-92): > 100 µM (inactive) | GI50 (HOP-62): > 100 µM (inactive) | GI50 (HL-60): 0.337 µM (active) | GI50 (SF-295): > 100 µM (inactive) | GI50 (KM12): > 100 µM (inactive)

O/N=C1\C(=C\c2ccc3c(c2)OCCO3)CCCC1C(NO)c1ccc2c(c1)OCCO2 (stereo not given)
GI50 (SK-MEL-28): 18.5 µM (inactive) | GI50 (HCC 2998): 22.6 µM (inactive) | GI50 (SR): 14.3 µM (inactive) | GI50 (LOX IMVI): 15.7 µM (inactive) | GI50 (ACHN): 34.5 µM (inactive) | GI50 (CAKI-1): 32.4 µM (inactive) | GI50 (SK-OV-3): 49.9 µM (inactive) | GI50 (IGROV-1): 36.1 µM (inactive) | GI50 (OVCAR-8): 31.4 µM (inactive) | GI50 (UO-31): 26.8 µM (inactive) | GI50 (A498): 16 µM (inactive) | GI50 (OVCAR-3): 18.3 µM (inactive) | GI50 (HOP-92): 23.3 µM (inactive) | GI50 (HOP-62): 22 µM (inactive) | GI50 (HL-60): 14.7 µM (inactive) | GI50 (SF-295): 31 µM (inactive) | GI50 (KM12): 21.4 µM (inactive)

O=C(O)Cc1ccc2c(c1O)C(=O)c1c(ccc(CC(=O)O)c1O)C2=O
GI50 (SK-MEL-28): > 100 µM (inactive) | GI50 (HCC 2998): > 100 µM (inactive) | GI50 (SR): > 100 µM (inactive) | GI50 (LOX IMVI): > 100 µM (inactive) | GI50 (ACHN): > 100 µM (inactive) | GI50 (CAKI-1): > 100 µM (inactive) | GI50 (SK-OV-3): > 100 µM (inactive) | GI50 (IGROV-1): > 100 µM (inactive) | GI50 (OVCAR-8): > 100 µM (inactive) | GI50 (A498): > 100 µM (inactive) | GI50 (OVCAR-3): > 100 µM (inactive) | GI50 (HOP-92): > 100 µM (inactive) | GI50 (HOP-62): > 100 µM (inactive) | GI50 (HL-60): > 100 µM (inactive) | GI50 (SF-295): > 100 µM (inactive) | GI50 (KM12): > 100 µM (inactive)

COC(=O)/C(=N/O)C(C(=O)C=C(C)C)C(=O)C(=O)Nc1nc2ccc([N+](=O)[O-])cc2s1 (stereo not given)
GI50 (SK-MEL-28): 58.7 µM (inactive) | GI50 (HCC 2998): 35.6 µM (inactive) | GI50 (SR): 38.1 µM (inactive) | GI50 (LOX IMVI): 22.9 µM (inactive) | GI50 (ACHN): 24.4 µM (inactive) | GI50 (CAKI-1): 24.2 µM (inactive) | GI50 (SK-OV-3): 24.8 µM (inactive) | GI50 (IGROV-1): 36.9 µM (inactive) | GI50 (OVCAR-8): 39.5 µM (inactive) | GI50 (UO-31): 26.8 µM (inactive) | GI50 (A498): 10.5 µM (inactive) | GI50 (OVCAR-3): 21.5 µM (inactive) | GI50 (HOP-92): 13.1 µM (inactive) | GI50 (HOP-62): 32.9 µM (inactive) | GI50 (HL-60): 38.2 µM (inactive) | GI50 (SF-295): 36.8 µM (inactive) | GI50 (KM12): 47.2 µM (inactive)

CC1=Nc2c(O)nc(S)nc2NC(c2ccc(Cl)c(Cl)c2)C1 (stereo not given)
GI50 (SK-MEL-28): 18.3 µM (inactive) | GI50 (HCC 2998): 17.8 µM (inactive) | GI50 (SR): > 100 µM (inactive) | GI50 (LOX IMVI): 20 µM (inactive) | GI50 (ACHN): > 65.2 µM (inactive) | GI50 (CAKI-1): 30.3 µM (inactive) | GI50 (SK-OV-3): 32.1 µM (inactive) | GI50 (IGROV-1): 20.1 µM (inactive) | GI50 (OVCAR-8): 18.7 µM (inactive) | GI50 (UO-31): 29.9 µM (inactive) | GI50 (A498): 18.9 µM (inactive) | GI50 (OVCAR-3): 17.5 µM (inactive) | GI50 (HOP-92): > 93.1 µM (inactive) | GI50 (HOP-62): 46.3 µM (inactive) | GI50 (HL-60): > 100 µM (inactive) | GI50 (SF-295): 20.1 µM (inactive) | GI50 (KM12): 17.7 µM (inactive)

O=C(C#Cc1ccccc1)N1c2ccccc2CC1c1c[nH]c2ccccc12 (stereo not given)
GI50 (SK-MEL-28): 14.9 µM (inactive) | GI50 (HCC 2998): 17.2 µM (inactive) | GI50 (SR): 12.3 µM (inactive) | GI50 (LOX IMVI): 6.73 µM (inactive) | GI50 (ACHN): 19.7 µM (inactive) | GI50 (CAKI-1): 11.4 µM (inactive) | GI50 (SK-OV-3): 20.4 µM (inactive) | GI50 (IGROV-1): 3.73 µM (inactive) | GI50 (OVCAR-8): 11.6 µM (inactive) | GI50 (UO-31): 23.1 µM (inactive) | GI50 (A498): 28.9 µM (inactive) | GI50 (OVCAR-3): 14.6 µM (inactive) | GI50 (HOP-92): 15.3 µM (inactive) | GI50 (HOP-62): 8.95 µM (inactive) | GI50 (HL-60): 14.7 µM (inactive) | GI50 (SF-295): 15.5 µM (inactive) | GI50 (KM12): 15.6 µM (inactive)

COc1ccccc1NC(=O)C1=C(C)NC(C)=C(C(=O)Nc2ccccc2OC)C1c1cccc2c1OCO2
GI50 (SK-MEL-28): > 100 µM (inactive) | GI50 (HCC 2998): 85.7 µM (inactive) | GI50 (SR): 30.5 µM (inactive) | GI50 (LOX IMVI): > 100 µM (inactive) | GI50 (ACHN): 58.9 µM (inactive) | GI50 (CAKI-1): > 100 µM (inactive) | GI50 (SK-OV-3): > 100 µM (inactive) | GI50 (IGROV-1): > 100 µM (inactive) | GI50 (OVCAR-8): > 100 µM (inactive) | GI50 (UO-31): 47.4 µM (inactive) | GI50 (A498): > 100 µM (inactive) | GI50 (OVCAR-3): > 100 µM (inactive) | GI50 (HOP-92): > 100 µM (inactive) | GI50 (HOP-62): > 100 µM (inactive) | GI50 (HL-60): 41.2 µM (inactive) | GI50 (SF-295): > 100 µM (inactive) | GI50 (KM12): 60.7 µM (inactive)

COc1ccc2c3c([nH]c(=O)c2c1C(=O)O)-c1ccccc1CC3
GI50 (SK-MEL-28): > 100 µM (inactive) | GI50 (HCC 2998): > 100 µM (inactive) | GI50 (SR): > 100 µM (inactive) | GI50 (LOX IMVI): > 100 µM (inactive) | GI50 (ACHN): > 100 µM (inactive) | GI50 (CAKI-1): > 100 µM (inactive) | GI50 (SK-OV-3): > 100 µM (inactive) | GI50 (IGROV-1): > 100 µM (inactive) | GI50 (UO-31): > 100 µM (inactive) | GI50 (A498): > 100 µM (inactive) | GI50 (OVCAR-3): > 100 µM (inactive) | GI50 (HOP-92): > 100 µM (inactive) | GI50 (HOP-62): > 100 µM (inactive) | GI50 (HL-60): > 100 µM (inactive) | GI50 (SF-295): > 100 µM (inactive) | GI50 (KM12): > 100 µM (inactive)

OCC1CC2CC1C1(C2)OCCO1 (stereo not given)
GI50 (SK-MEL-28): > 100 µM (inactive) | GI50 (SR): > 100 µM (inactive) | GI50 (LOX IMVI): > 100 µM (inactive) | GI50 (ACHN): > 100 µM (inactive) | GI50 (CAKI-1): > 100 µM (inactive) | GI50 (SK-OV-3): > 100 µM (inactive) | GI50 (IGROV-1): > 100 µM (inactive) | GI50 (OVCAR-8): > 100 µM (inactive) | GI50 (UO-31): > 100 µM (inactive) | GI50 (A498): > 100 µM (inactive) | GI50 (OVCAR-3): > 100 µM (inactive) | GI50 (HOP-92): > 100 µM (inactive) | GI50 (HOP-62): > 100 µM (inactive) | GI50 (HL-60): > 100 µM (inactive) | GI50 (SF-295): > 100 µM (inactive) | GI50 (KM12): > 100 µM (inactive)

O=Cc1[nH]c2ccccc2c1Br
GI50 (SK-MEL-28): 25.1 µM (inactive) | GI50 (HCC 2998): 60.5 µM (inactive) | GI50 (SR): 21.7 µM (inactive) | GI50 (LOX IMVI): 26.7 µM (inactive) | GI50 (ACHN): 26 µM (inactive) | GI50 (CAKI-1): > 100 µM (inactive) | GI50 (SK-OV-3): 20.8 µM (inactive) | GI50 (IGROV-1): 26.7 µM (inactive) | GI50 (OVCAR-8): 23.7 µM (inactive) | GI50 (UO-31): 30.8 µM (inactive) | GI50 (A498): 16.8 µM (inactive) | GI50 (OVCAR-3): 21.8 µM (inactive) | GI50 (HOP-92): 26.8 µM (inactive) | GI50 (HOP-62): 18 µM (inactive) | GI50 (HL-60): 13.8 µM (inactive) | GI50 (SF-295): 38.4 µM (inactive) | GI50 (KM12): 26.3 µM (inactive)

CC1=CC2C(C=C1)S(=O)(=O)N1CC21c1ccccc1 (stereo not given)
GI50 (SK-MEL-28): > 100 µM (inactive) | GI50 (HCC 2998): > 100 µM (inactive) | GI50 (SR): 90.8 µM (inactive) | GI50 (LOX IMVI): 33.5 µM (inactive) | GI50 (ACHN): > 100 µM (inactive) | GI50 (CAKI-1): 44.2 µM (inactive) | GI50 (SK-OV-3): > 100 µM (inactive) | GI50 (IGROV-1): > 100 µM (inactive) | GI50 (OVCAR-8): > 100 µM (inactive) | GI50 (UO-31): 55.1 µM (inactive) | GI50 (A498): > 100 µM (inactive) | GI50 (OVCAR-3): > 100 µM (inactive) | GI50 (HOP-92): 15.1 µM (inactive) | GI50 (HOP-62): > 100 µM (inactive) | GI50 (HL-60): > 100 µM (inactive) | GI50 (SF-295): > 100 µM (inactive) | GI50 (KM12): > 100 µM (inactive)

Cc1ccc2c(O)cc(-c3ccc4ccccc4c3)nc2n1
GI50 (MDA-MB-231): 14.3 µM (inactive) | GI50 (SK-MEL-28): 5.9 µM (inactive) | GI50 (HCC 2998): 10.8 µM (inactive) | GI50 (SR): 1.83 µM (inactive) | GI50 (LOX IMVI): 5.14 µM (inactive) | GI50 (ACHN): 4.72 µM (inactive) | GI50 (SK-OV-3): 3.37 µM (inactive) | GI50 (NCI/ADR-RES): 4.58 µM (inactive) | GI50 (IGROV-1): 2.6 µM (inactive) | GI50 (OVCAR-8): 5.82 µM (inactive) | GI50 (UO-31): 8 µM (inactive) | GI50 (A498): 3.4 µM (inactive) | GI50 (HOP-92): 1.5 µM (inactive) | GI50 (HOP-62): 7.13 µM (inactive) | GI50 (HL-60): 1.82 µM (inactive) | GI50 (KM12): 3.21 µM (inactive)
